Laboratory results taken from patent US20220401514A1, “ANTIMICROBIAL, BACTERIOPHAGE-DERIVED POLYPEPTIDES AND THEIR USE AGAINST GRAM-NEGATIVE AND ACID-FAST BACTERIA” (CONTRAFECT CORPORATION, priority 2019, published 2022).
In brackets after ≈: the same amount, converted by molar mass. Where two headings read alike, the source gives them in different places.

Experiments:
Acinetobacter baumannii = assay: microbe, parasite or virus in culture; type: cell-based; conditions: for MIC50 / MIC100 / MIC Range: A. baumannii isolates (n per peptide in table)
[1] = test system: P. aeruginosa strain CFS-1292; assay: Checkerboard assay (FICI) with antibiotics, P. aeruginosa; type: cell-based, Pseudomonas aeruginosa; conditions: P. aeruginosa CFS-1292
How it was run: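 Antibiotic diluted 2-fold along one plate axis against Chp peptide; bacteria added at 1×10^5 […] in CAA, optionally with human serum or pulmonary surfactant.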

M. smegmatis = assay: 45 hr MIC against M. smegmatis (NTM), Mueller Hinton broth; type: cell-based, Mycobacterium smegmatis
M. fortuitum = assay: 45 hr MIC against M. fortuitum (NTM); type: cell-based, Mycobacterium fortuitum; conditions: M. fortuitum subsp. Fortuitum da Costa Cruz. ATCC 6841
M. avium = assay: 45 hr MIC against M. avium (NTM); type: cell-based, Mycobacterium avium; conditions: M. avium Chester ATCC 700898
M. scrofulaceum = assay: 45 hr MIC against M. scrofulaceum (NTM); type: cell-based, Mycobacterium scrofulaceum; conditions: M. scrofulaceum Prissick and Masson ATCC 19981
M. intracellulare = assay: 45 hr MIC against M. intracellulare (NTM); type: cell-based, Mycobacterium intracellulare; conditions: M. intracellulare (Cuttino and McCabe) Runyon ATCC 13950
Klebsiella pneumoniae = assay: microbe, parasite or virus in culture; type: cell-based
[2] = test system: carbapenem-resistant P. aeruginosa clinical isolate CFS-1292; assay: MIC by modified CLSI broth microdilution against P. aeruginosa CFS-1292 (CAA, CAA + human serum); type: cell-based, Pseudomonas aeruginosa; conditions: for MIC (μg/mL) against CFS-1292 in 100% CAA (1st run/2nd run): 1st run or single value
[3] = test system: carbapenem-resistant bacterial strains; assay: organism not typed; type: cell-based
Source text: Determination of Minimal Inhibitory Concentrations (MIC).

[4] = test system: P. aeruginosa strain CFS-1292; assay: MIC in presence and absence of NaCl (140 mM); type: cell-based, Pseudomonas aeruginosa; conditions: for Fold change in MIC: CAA + 140 mM NaCl versus CAA without added NaCl; for MIC, CAA + 140 mM NaCl / MIC, CAA (no added NaCl): P. aeruginosa CFS-1292
Procedure: Certain Chp peptides were evaluated over a range of physiological NaCl levels and pH values, and were further evaluated for activity in the presence of various divalent cations.

[5] = test system: P. aeruginosa strain CFS-1292; assay: MIC in presence of divalent cations (calcium chloride, magnesium sulfate); type: cell-based, Pseudomonas aeruginosa
Procedure: Next, Chp peptides were evaluated in the presence of different divalent cations. […]; (2) in the presence of 2 mM calcium chloride alone; (3) in the presence of 1 mM magnesium sulfate alone; and (4) in the presence of both 2 mM calcium chloride and 1 mM magnesium sulfate. […]

[6] = test system: P. aeruginosa strain CFS-1292; assay: MIC in presence and absence of Survanta pulmonary surfactant; type: cell-based, Pseudomonas aeruginosa
[7] = test system: P. aeruginosa strain CFS-1292; assay: MIC in presence of mouse, rat, rabbit and human serum ([…] each); type: cell-based, Pseudomonas aeruginosa; conditions: P. aeruginosa CFS-1292
Procedure: The activity of several Chp peptides against P. aeruginosa strain CFS-1292 in animal serum was evaluated. […] Rat, mouse, and rabbit serum were all obtained from pooled gender samples.

[8] = test system: Mycobacterium tuberculosis strains
Procedure: MIC values for various Chp peptides were determined using the CLSI method for broth microdilution in 96-well microtiter format.
Next, MIC values for various Chp peptides were determined using the CLSI method above for broth microdilution in 96-well microtiter format for two different Mycobacterium tuberculosis strains. The MIC was determined as explained above for the NTM strains.

[9] = Acinetobacter baumannii (clinical isolate HSS), RSC 30, CAA without human serum
[10] = Acinetobacter baumannii (clinical isolate HSS), RSC 32, CAA without human serum
[11] = Acinetobacter baumannii ATCC BAA 747, CAA supplemented with human serum
[12] = carbapenem-resistant isolate PA19
[13] = carbapenem-resistant isolate PA20
[14] = carbapenem-resistant isolate PA21
[15] = carbapenem-resistant isolate PA22
[16] = carbapenem-resistant isolate PA23
[17] = carbapenem-resistant isolate PA24
[18] = carbapenem-resistant isolate WLC-452
[19] = CAA media + 0.19 mg/mL Survanta
[20] = Mycobacterium tuberculosis (Zopf) Lehmann and Neumann ATCC 25177
[21] = Mycobacterium tuberculosis (Zopf) Lehmann and Neumann ATCC 35817
[22] = Klebsiella pneumoniae (ATCC 10031, MIC control strain), RSC 814, CAA without human serum
[23] = Klebsiella pneumoniae (g2-3 HM35K), RSC 1138, CAA without human serum
[24] = Klebsiella sp. (HM-44; colon, Crohn's disease), RSC 1139, CAA without human serum
[25] = Klebsiella spp. (HM-223; gut of Crohn's disease patient), RSC 1131, CAA without human serum

NC[C@H]1O[C@H](O[C@H]2[C@H](O)[C@@H](O[C@H]3O[C@H](CO)[C@@H](O)[C@H](N)[C@H]3O)[C@H](N)C[C@@H]2N)[C@H](N)C[C@@H]1O [tobramycin, reference compound]
MIC (Acinetobacter baumannii; Acinetobacter baumannii, ATCCBAA747, A. baumanni (ATCC BAA-747), control agents of Table 8, read-out: MIC (in brackets beside MBEC)): < 0.5 µg/mL
Antibiotic FIC ([1]; combined with Chp2-M1): 0.25
Antibiotic FIC ([1]; combined with Chp2): 0.25
Antibiotic FIC ([1]; combined with Chp4-M1): 0.25
Antibiotic FIC ([1]; combined with Chp6-M1): 0.25
Antibiotic FIC ([1]; combined with Chp10-M1): 0.25
Antibiotic FIC ([1]; combined with Unp2-M1): 0.25
MIC (M. smegmatis; Mycolicibacterium smegmatis, MC^2155, 45 h, read-out: 45 hr MIC, M. smegmatis MC^2 155, Run #2): 0.125 µg/mL (≈ 0.267 µM)
MIC (M. fortuitum; Mycolicibacterium fortuitum, ATCC6841, 45 h, read-out: 45 hr MIC): 4 µg/mL (≈ 8.56 µM)
MIC (M. avium; Mycobacterium avium, ATCC700898, 45 h, read-out: 45 hr MIC): 0.125 µg/mL (≈ 0.267 µM)
MIC (M. scrofulaceum; Mycobacterium scrofulaceum, ATCC19981, 45 h, read-out: 45 hr MIC): 0.25 µg/mL (≈ 0.535 µM)
MIC (M. intracellulare; Mycobacterium intracellulare, ATCC13950, 45 h, read-out: 45 hr MIC): 0.25 µg/mL (≈ 0.535 µM)
MIC (Klebsiella pneumoniae; Klebsiella pneumoniae, ATCC700603, K. pneumoniae (ATCC 700603), control agents of Table 8, read-out: MIC (in brackets beside MBEC)): < 0.5 µg/mL
MIC (Klebsiella pneumoniae; Klebsiella pneumoniae, read-out: MIC (in brackets beside MBEC)): < 0.5 µg/mL

MARRRYRLPRRRSRRLFSRTALRMHPRNRLRRIMRGGIRF [Chp6]
MIC (μg/mL) against CFS-1292 in 100% CAA (1st run/2nd run) [2]: 0.5 µg/mL
MIC50 (Acinetobacter baumannii): 0.25 µg/mL
MIC100 (Acinetobacter baumannii): 0.5 µg/mL
MIC Range (Acinetobacter baumannii): 0.125 to 1 µg/mL
MIC (Acinetobacter baumannii; [9]): 2 µg/mL
MIC (Acinetobacter baumannii; [10]): 2 µg/mL
MIC (Acinetobacter baumannii; [11]): 1 µg/mL
MIC [3, 12]: 0.5 µg/mL
MIC [3, 13]: 1 µg/mL
MIC [3, 14]: 1 µg/mL
MIC [3, 15]: 1 µg/mL
MIC [3, 16]: 1 µg/mL
MIC [3, 17]: 1 µg/mL
MIC [3, 18]: 0.25 µg/mL
45 hr MIC (M. smegmatis; M. smegmatis MC^2 155, Run #1): 4 µg/mL
45 hr MIC (M. smegmatis; M. smegmatis MC^2 155, Run #2): 4 µg/mL
45 hr MIC (M. fortuitum): 4 µg/mL
45 hr MIC (M. avium): 1 µg/mL
45 hr MIC (M. scrofulaceum): 2 µg/mL
45 hr MIC (M. intracellulare): 0.5 µg/mL
Fold change in MIC [4]: 1
MIC, CAA + 140 mM NaCl [4]: 0.5 µg/mL
MIC, CAA (no added NaCl) [4]: 0.5 µg/mL
MIC ([5]; CAA media + 1 mM MgSO4): 1 µg/mL
MIC ([5]; CAA media + 2 mM CaCl2): 0.5 µg/mL
MIC ([5]; CAA media + + 1 mM MgSO4): 1 µg/mL
MIC ([5]; CAA media alone): 1 µg/mL
MIC [6, 19]: 0.5 µg/mL
MIC ([6]; CAA media + […] Survanta): 0.5 µg/mL
MIC ([6]; CAA media alone): 0.5 µg/mL
MIC BALB/C Mouse Serum ([7]; BALB/C mouse serum […]): 32 µg/mL
MIC CAA ([7]; CAA): 1 µg/mL
MIC New Zealand White Rabbit Serum ([7]; New Zealand White rabbit serum […]): 4 µg/mL
MIC Sprague Dawley Rat Serum ([7]; Sprague Dawley rat serum […]): 4 µg/mL
MIC Human Serum ([7]; human serum […]): 1 µg/mL
MIC [8, 20]: 32 µg/mL
MIC [8, 21]: 4 µg/mL
MIC (Klebsiella pneumoniae; [22]): 4 µg/mL
MIC (Klebsiella pneumoniae; [23]): 4 µg/mL
MIC (Klebsiella pneumoniae; [24]): 1 µg/mL
MIC (Klebsiella pneumoniae; [25]): 4 µg/mL

MVRRRRLRRRISRRIFRRTVARVGRRRRSFRGGIRF [Chp1]
MIC (μg/mL) against CFS-1292 in 100% CAA (1st run/2nd run) [2]: 1 µg/mL
MIC (μg/mL) against CFS-1292 in CAA + […] human serum ([2]; CAA + […] human serum): 1 µg/mL
MIC50 (Acinetobacter baumannii): 2 µg/mL
MIC100 (Acinetobacter baumannii): 4 µg/mL
MIC Range (Acinetobacter baumannii): 1 to 4 µg/mL
MIC (Acinetobacter baumannii; [9]): 8 µg/mL
MIC (Acinetobacter baumannii; [10]): 8 µg/mL
MIC (Acinetobacter baumannii; [11]): 2 µg/mL
MIC [3, 12]: 2 µg/mL
MIC [3, 13]: 4 µg/mL
MIC [3, 14]: 4 µg/mL
MIC [3, 15]: 4 µg/mL
MIC [3, 16]: 4 µg/mL
MIC [3, 17]: 4 µg/mL
MIC [3, 18]: 2 µg/mL
45 hr MIC (M. smegmatis; M. smegmatis MC^2 155, Run #1): 8 µg/mL
45 hr MIC (M. smegmatis; M. smegmatis MC^2 155, Run #2): 16 µg/mL
45 hr MIC (M. fortuitum): 16 µg/mL
45 hr MIC (M. avium): 4 µg/mL
45 hr MIC (M. scrofulaceum): 4 µg/mL
45 hr MIC (M. intracellulare): 4 µg/mL
Fold change in MIC [4]: 1
MIC, CAA + 140 mM NaCl [4]: 1 µg/mL
MIC, CAA (no added NaCl) [4]: 1 µg/mL
MIC ([5]; CAA media + 1 mM MgSO4): 1 µg/mL
MIC ([5]; CAA media + 2 mM CaCl2): 2 µg/mL
MIC ([5]; CAA media + + 1 mM MgSO4): 1 µg/mL
MIC ([5]; CAA media alone): 1 µg/mL
MIC [6, 19]: 2 µg/mL
MIC ([6]; CAA media + […] Survanta): 2 µg/mL
MIC ([6]; CAA media alone): 1 µg/mL
MIC [8, 20]: 64 µg/mL
MIC [8, 21]: 32 µg/mL
MIC (Klebsiella pneumoniae; [22]): 16 µg/mL
MIC (Klebsiella pneumoniae; [23]): 16 µg/mL
MIC (Klebsiella pneumoniae; [24]): 8 µg/mL
MIC (Klebsiella pneumoniae; [25]): 8 µg/mL
